Results reported in patent US9732093B2, “FLAP modulators” (JANSSEN PHARMACEUTICA NV, priority 2013, dated 2017).
pIC50, pKi: −log10 of the molar value. Where a name gives a salt, the structure may show the parent alone. Read-outs that look alike come from different tables or passages of the source.

What was measured:
[1] = system: leukotriene pathway in human whole blood; experiment: Human whole blood assay (LTB4 levels after A23187 stimulation); format: cell-based
Method: (§1) The ability of the compounds of the present invention to treat a FLAP-mediated disease and/or disorder, or associated symptoms or complications thereof, was determined using the following procedures. Binding assay data represent the average value obtained from two different assay plates, with samples run in duplicate on each plate. Human whole blood assay data represent a single replicate on an assay plate using whole blood from at least one healthy donor.
An in vitro cellular assay was performed using human whole blood collected in heparin-containing tubes, which was used to test the ability of compounds to modulate the leukotriene pathway in human whole blood. The blood was diluted 1:1 in RPMI medium, pre-incubated for 15 min at 37° Celsius with test compounds at various concentrations, and then stimulated with calcium ionophore, A23187 (7 μg/mL), for 30 min at 37° Celsius. The samples were then centrifuged and plasma was removed. The plasma was diluted in assay buffer and LTB4 levels were measured using a commercial kit (Enzo Life Sciences). The concentration of each compound that was required for half-maximal inhibition (modulation) of recombinant enzyme activity (IC50) was calculated by a 4-parameter equation using the program GraphPad Prism (GraphPad software).

human FLAP = human FLAP (Homo sapiens (Human), UniProt P20292); experiment: FLAP binding assay (HTRF format)
Method: as §1
Data are expressed as a HTRF ratio.

[2] = blood diluted 1:1 in RPMI, 15 min pre-incubation, A23187 7 μg/mL for 30 min at 37° Celsius, plasma LTB4
[3] = human whole blood diluted 1:1 in RPMI, A23187 stimulation, Table 6 (additional runs)
[4] = human FLAP wild type membranes, HTRF format, Table 6 (additional runs)

Sequence of human FLAP (P20292 whole entry): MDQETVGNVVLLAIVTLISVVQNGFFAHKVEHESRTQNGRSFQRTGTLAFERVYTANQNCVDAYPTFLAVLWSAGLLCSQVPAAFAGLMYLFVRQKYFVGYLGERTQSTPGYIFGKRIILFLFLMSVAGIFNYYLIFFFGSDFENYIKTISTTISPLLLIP

Compound | pIC50 [1, 2] | pIC50 [1, 3] | pKi (human FLAP; [4]) | pKi (human FLAP; human FLAP-containing membranes, HTRF ligand 25 nM, 2 h, average of two plates, duplicates, read-out: FLAP Binding wild type HTRF Ki)
2-(4-Cyclobutyl-2-fluoro-3-{[4-(trifluoromethyl)benzyl]oxy}phenyl)-5H-pyrrolo[2,3-b]pyrazine trifluoroacetate salt [Example 177] | 6.11 | 6.05 | – | –
5-(4-Cyclobutyl-2-fluoro-3-hydroxyphenyl)pyridin-2-amine [Intermediate F] | 5.89 | – | – | –
5-(4-Cyclobutyl-2-fluoro-3-methoxyphenyl)-1H-pyrrolo[2,3-b]pyridine [Intermediate I] | 5.78 | 5.78 | – | –
6-Cyclobutyl-2-fluoro-3-(5H-pyrrolo[2,3-b]pyrazin-2-yl)phenol [Example 176] | 6.05 | 5.89 | ~7.12 | –
Nc1cnc(-c2ccc(C3CCC3)c(OCC(O)Cn3c(=O)[nH]c4ccccc43)c2F)cn1 (racemic) [Example 311, racemic 1-{3-[3-(5-Aminopyrazin-2-yl)-6-cyclobutyl-2-fluorophenoxy]-2-hydroxypropyl}-1,3-dihydro-2H-benzimidazol-2-one] | – | 6.58 | – | –
Nc1cnc(-c2ccc(C3CCC3)c(OCc3cccc(C(F)(F)F)c3)c2F)cn1 [Compound 2, 5-(4-Cyclobutyl-2-fluoro-3-{[3-(trifluoromethyl)benzyl]oxy}phenyl)pyrazin-2-amine] | – | 6.05 | 7.06 | –
COc1cc(Oc2c(C3CCC3)ccc(-c3cnc(N)cn3)c2F)ncn1 [Example 97, 5-{4-Cyclobutyl-2-fluoro-3-[(6-methoxypyrimidin-4-yl)oxy]phenyl}pyrazin-2-amine] | – | 6.90 | – | –
Nc1cnc(-c2ccc(C3CCC3)c(Oc3cc(O)ncn3)c2F)cn1 [Example 98] | – | 6.91 | – | –
Nc1cnc(-c2ccc(C3CCC3)c(Oc3ccnc(N)n3)c2F)cn1 [Example 130, 4-[3-(5-Aminopyrazin-2-yl)-6-cyclobutyl-2-fluorophenoxy]pyrimidin-2-amine] | – | 7.67 | – | –
Nc1cnc(-c2ccc(C3CCC3)c(Oc3cc(N)ncn3)c2F)cn1 [Example 136, 6-[3-(5-Aminopyrazin-2-yl)-6-cyclobutyl-2-fluorophenoxy]pyrimidin-4-amine] | – | 7.25 | 8.41 | –
NC(=O)c1ccc(Oc2c(C3CCC3)ccc(-c3cnc(N)cn3)c2F)cc1 [Example 155, 4-[3-(5-Aminopyrazin-2-yl)-6-cyclobutyl-2-fluorophenoxy]benzamide] | – | 6.89 | – | –
Fc1c(-c2cnc3[nH]ccc3n2)ccc(C2CCC2)c1OCc1ccccc1 [Example 178, 2-[3-(Benzyloxy)-4-cyclobutyl-2-fluorophenyl]-5H-pyrrolo[2.3-b]pyrazine] | – | 6.11 | – | 6.45
CC(C)(C)c1ccc(-c2cnc(N)nc2)c(F)c1Oc1ncccn1 [Example 207, 5-[4-tert-Butyl-2-fluoro-3-(pyrimidin-2-yloxy)phenyl]pyrimidin-2-amine] | – | 7.11 | 7.29 | –
CC(C)(C)c1ccc(-c2cnc(N)nc2)c(F)c1Oc1cc(N)ncn1 [Example 208, 5-{3-[(6-Aminopyrimidin-4-yl)oxy]-4-tert-butyl-2-fluorophenyl}pyrimidin-2-amine] | – | 6.79 | – | –
Fc1c(-c2cnc3c(c2)OCCN3)ccc(C2CCC2)c1Oc1ncccn1 [Example 225, 7-(4-Cyclobutyl-2-fluoro-3-(pyrimidin-2-yloxy)phenyl)-3,4-dihydro-2H-pyrido[3,2-b][1,4]oxazine] | – | 6.54 | 7.63 | –
N#CCOc1c(C2CCC2)ccc(-c2cnc(N)cn2)c1F [Example 276, [3-(5-Aminopyrazin-2-yl)-6-cyclobutyl-2-fluorophenoxy]acetonitrile] | – | 5.73 | – | –
Nc1cnc(-c2ccc(C3CCC3)c(Oc3cccnn3)c2F)cn1 [Example 277, 5-[4-Cyclobutyl-2-fluoro-3-(pyridazin-3-yloxy)phenyl]pyrazin-2-amine] | – | 6.72 | – | –
Nc1cnc(-c2ccc(C3CC3)c(Oc3nccc(N)n3)c2F)cn1 [Example 279, 2-[3-(5-Aminopyrazin-2-yl)-6-cyclopropyl-2-fluorophenoxy]pyrimidin-4-amine] | – | 6.94 | – | –
COC(=O)c1coc(COc2c(C3CCC3)ccc(-c3cnc(N)cn3)c2F)n1 [Example 281, Methyl 2-{[3-(5-aminopyrazin-2-yl)-6-cyclobutyl-2-fluorophenoxy]methyl}-1,3-oxazole-4-carboxylate trifluoroacetic acid salt] | – | 6.34 | – | –
Nc1cnc(-c2ccc(C3CCC3)c(OCc3nc4ccccc4s3)c2F)cn1 [Example 283, 5-[3-(1,3-Benzothiazol-2-ylmethoxy)-4-cyclobutyl-2-fluorophenyl]pyrazin-2-amine trifluoroacetic acid salt] | – | 6.27 | – | –
N#Cc1cccnc1COc1c(C2CCC2)ccc(-c2cnc(N)cn2)c1F [Example 286, 2-{[3-(5-Aminopyrazin-2-yl)-6-cyclobutyl-2-fluorophenoxy]methyl)}pyridine-3-carbonitrile trifluoroacetic acid salt] | – | 5.93 | 7.09 | –
Cc1nc(COc2c(C3CCC3)ccc(-c3cnc(N)cn3)c2F)cs1 [Example 287, 5-{4-Cyclobutyl-2-fluoro-3-[(2-methyl-1,3-thiazol-4-yl)methoxy]phenyl}pyrazin-2-amine trifluoroacetic acid salt] | – | < 6.00 | 7.75 | –
Nc1cnc(-c2ccc(C3CCC3)c(OCCN3C(=O)c4ccccc4C3=O)c2F)cn1 [Example 293, 2-{2-[3-(5-Aminopyrazin-2-yl)-6-cyclobutyl-2-fluorophenoxy]ethyl}-1H-isoindole-1,3(2H)-dione] | – | 7.00 | – | –
Nc1cnc(-c2ccc(C3CCC3)c(OCCNc3cnccn3)c2F)cn1 [Example 295, 5-{4-Cyclobutyl-2-fluoro-3-[2-(pyrazin-2-ylamino)ethoxy]phenyl}pyrazin-2-amine trifluoroacetic acid salt] | – | 6.73 | – | –
Nc1cnc(-c2ccc(C3CCC3)c(OCCNc3ncccn3)c2F)cn1 [Example 296, N-{2-[3-(5-Aminopyrazin-2-yl)-6-cyclobutyl-2-fluorophenoxy]ethyl}pyrimidin-2-amine trifluoroacetic acid salt] | – | 6.55 | – | –
Nc1cnc(-c2ccc(C3CCC3)c(OCCNc3ccncn3)c2F)cn1 [Example 297, N-{2-[3-(5-Aminopyrazin-2-yl)-6-cyclobutyl-2-fluorophenoxy]ethyl}pyrimidin-4-amine] | – | 6.67 | – | –
Cc1ccc(-c2cnc(N)cn2)c(F)c1Oc1ncccn1 [Example 314, 5-[2-Fluoro-4-methyl-3-(pyrimidin-2-yloxy)phenyl]pyrazin-2-amine] | – | < 5.00 | – | –
Nc1ncc(-c2ccc(C3CCCC3)c(Oc3ncccn3)c2F)cn1 [Example 334, 5-[4-Cyclopentyl-2-fluoro-3-(pyrimidin-2-yloxy)phenyl]pyrimidin-2-amine] | – | 7.28 | 8.34 | –
Nc1ccnc(Oc2c(C3CCCC3)ccc(-c3cnc(N)nc3)c2F)n1 [Example 335, 5-{3-[(4-Aminopyrimidin-2-yl)oxy]-4-cyclopentyl-2-fluorophenyl}pyrimidin-2-amine] | – | 7.43 | 8.44 | –
Nc1cnc(-c2ccc(C3CCCC3)c(Oc3nccc(N)n3)c2F)cn1 [Example 336, 2-[3-(5-Aminopyrazin-2-yl)-6-cyclopentyl-2-fluorophenoxy]pyrimidin-4-amine] | – | 7.62 | 8.41 | –
